Test results published in patent US10624887B2, “Compositions of (-)-17-(cyclobutylmethyl)morphinan-3,14,-diol” (priority 2010, dated 2020).
Entries after “also recorded” stand apart in the source; their conditions may differ.

Legend:
[1] = system: paclitaxel induced painful neuropathy; test: Paclitaxel induced painful neuropathy, cold allodynia (acetone drop test); type: in vivo, Wistar rats; settings: paclitaxel neuropathic rats
From the text: (§1) The aim of this study was to evaluate the effect of oral administration of butorphanol in rats with paclitaxel induced painful neuropathy. The primary measurements were made mechanical and thermal allodynia designed to detect effects of the treatment(s) on neuropathic pain.
(§2) Wistar rats weighing 250±20 g were maintained on standard laboratory diet and having free access to tap water ad lib were employed in the present study. They were housed in the animal house and were exposed to 12 hr cycle of light and dark. The experiments were conducted in a semi-sound proof laboratory. Care of the animals was in accordance with guidelines for experimentation on animals.
Rats were injected on five alternate days (day 4, 6, 8, 10 & 12) with paclitaxel (2 mg/kg i.p.) using an injection volume of 2 ml/kg. Thus, the cumulative dose of paclitaxel was computed to be 10 mg/kg. Tests took place ten days after the last injection and continued over the next three weeks. […]
For the assessment of cold allodynia, which was stable for 3 weeks, the rats were placed on a wire mesh covered with a plastic dome and were allowed to habituate until the exploratory behavior diminished. Cold allodynia was measured as the number of foot withdrawal responses after application of stimuli to the plantar surface of the paw. […] Acetone was applied two times (once every 5 min) on the left paw, and the number of reactions (shaking, tapping, or licking) was counted during 30 sec. […] The score was expressed as accumulated numbers of reactions over the trials and determined before and 30 and 60 min after administration of the test drugs. Each individual test was expressed as a percentage of maximum possible effect (% MPE): […]
MPE (%) at 30 min time point was employed as a quantitative measure of the analgesic effect of the test drugs.
(§3) The anti-nociceptive effect was plotted assessed having time (relative to dosing time point) on the x-axis and percent maximum possible effect (% MPE) on the y-axis. The results were expressed as mean±standard error of means (S.E.M.). […]

[2] = system: streptozotocin (STZ) induced diabetes neuropathy; test: Streptozotocin induced diabetic neuropathy, mechanical allodynia (von Frey filaments); type: in vivo, Wistar rats; settings: STZ diabetic neuropathic rats
Experimental: as §1, with “streptozotocin (STZ)” for “paclitaxel”, “diabetes” for “painful”, “neuropathy. A single injection of streptozotocin (STZ) (40-70 mg/kg, i.p.) was used to induce diabetes in rats.” for “neuropathy.”
as §2
The STZ-induced diabetes model was adapted from Arison et al (1967). […]
Mechano-allodynia was assessed using von Frey filaments. […] Both hind paws were tested for allodynia and the average of the two was recorded. Results were expressed in grams and determined before and 30 and 60 min after the administration of the test drugs.
as §3

Structure (SMILES): Oc1ccc2c(c1)[C@@]13CCCC[C@@]1(O)[C@@H](C2)N(CC1CCC1)CC3 [butorphanol, (−)17-(Cyclobutylmethyl)morphinan-3,14-diol]
- cold allodynia withdrawal threshold in comparison to the control readings ([1]; oral): significant increase
- time of peak effect post-administration (cold allodynia) ([1]; oral): 30 min
- cold allodynia score ([1]; p.o. 0.01, 0.03, 0.1, 0.3 mg/kg, FIG. 18): dose dependent decrease
- mechanical withdrawal threshold ([2]; oral 1, 3, 10, 30 mg/kg, FIG. 19): dose dependent increase; also recorded: significant increase
- time of peak effect post-administration (mechanical allodynia) ([2]; oral): 30 min
